Source: US20090312286A1, “DERIVATIVES OF 4-TRIMETHYLAMMONIUM-3-AMINOBUTYRATE AND 4-TRIMETHYLPHOSPHONIUM-3-AMINOBUTYRATE AS CPT-INHIBITORS” (SIGMA-TAU INDUSTRIE FARMACEUTICHE RIUNITE S.P.A., priority 2006, published 2009)

Key:
[1] = target: T1, CPT1 in rat mitochondria (liver) (Rattus norvegicus, UniProt P32198); assay: In vitro inhibition of CPT I, rat liver mitochondria; type: biochemical; settings: for Ratio: IC50 (heart) / IC50 (liver); for IC50: CPT1, liver mitochondria of Fischer rats, 50 μM palmitoyl-CoA, 10 mM L-carnitine, 37° C., 1 minute
T1 construct: fresh mitochondrial preparations obtained from the liver or heart of Fischer rats; from tissue; host or cells: rat liver mitochondria (Fischer rats)
T1 sequence (P32198 1-773): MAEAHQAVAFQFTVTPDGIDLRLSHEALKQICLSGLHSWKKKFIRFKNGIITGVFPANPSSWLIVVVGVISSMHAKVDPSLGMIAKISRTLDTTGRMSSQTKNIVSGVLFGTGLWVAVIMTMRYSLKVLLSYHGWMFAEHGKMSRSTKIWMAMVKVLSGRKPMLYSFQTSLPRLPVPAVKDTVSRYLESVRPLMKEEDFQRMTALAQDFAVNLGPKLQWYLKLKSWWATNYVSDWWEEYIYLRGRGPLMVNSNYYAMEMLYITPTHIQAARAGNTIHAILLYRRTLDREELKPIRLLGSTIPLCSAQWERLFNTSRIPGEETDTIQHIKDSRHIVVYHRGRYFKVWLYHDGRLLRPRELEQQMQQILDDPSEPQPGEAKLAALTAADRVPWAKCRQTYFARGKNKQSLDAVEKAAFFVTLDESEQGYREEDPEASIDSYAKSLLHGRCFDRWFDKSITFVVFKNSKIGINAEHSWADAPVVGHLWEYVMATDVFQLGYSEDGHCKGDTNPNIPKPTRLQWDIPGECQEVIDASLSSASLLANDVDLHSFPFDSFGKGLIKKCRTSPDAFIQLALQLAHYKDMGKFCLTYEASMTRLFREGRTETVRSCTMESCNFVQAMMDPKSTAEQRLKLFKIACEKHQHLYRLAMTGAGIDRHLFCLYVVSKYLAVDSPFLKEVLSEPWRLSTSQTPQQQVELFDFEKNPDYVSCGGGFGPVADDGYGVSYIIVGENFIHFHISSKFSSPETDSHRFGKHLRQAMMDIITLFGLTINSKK
Experimental: 100 μl of a mitochondrial suspension, containing 50 μM of [^14C] palmitoyl-CoA (spec.act. 10000 dpm/mole) and 10 mM of L-carnitine, are incubated at 37° C. in the presence of stepped concentrations (0-3 mM) of product under examination.
(§1) The IC50 is then determined.

[2] = tested on: β-hydroxybutyrate production; assay: Inhibition of ketone bodies production in vivo in fasted rats; design: species or system rat; settings: for ED50: Rattus norvegicus, single oral treatment, calculated on AUC of β-hydroxybutyrate from time 0 to 9 hours; for reduction of β-hydroxybutyrate levels / time to reach minimum β-hydroxybutyrate values: rats fasted 17 hours; for reduction of β-hydroxybutyrate levels: single oral dose equimolar to 10 mg/Kg of ST1326, measured at 3 and 6 hours; for time to reach minimum β-hydroxybutyrate values: single oral dose equimolar to 10 mg/Kg of ST1326, values stable for additional 3 hours
Experimental: The compounds were administered per os at 9:00 after 17 hours of fasting (n=5) at doses equimolar to 10 mg/kg of ST1326, which is used as reference compound.
The inhibition of CPT and consequently of β-hydroxybutyrate production operated by ST2425 and ST2452 was evaluated in vivo in rats fasted from 17 hours, at doses equimolar to 10 mg/Kg of ST1326 used as reference compound. β-hydroxybutyrate levels were measured at 3 and 6 hours from single oral treatment.
For compound ST2425, inhibition of ketone bodies production was also evaluated at the dosages of 0, 1, 3, 7, 10 mg/kg in rats fasted for 16 hours, following the reduction of β-hydroxybutyrate for 9 hours after single oral treatment.

[3] = tested on: db/db mice; assay: Antihyperglycemic activity in db/db mice; type: in vivo, mouse; settings: vs control
Experimental: ST2425 and ST2452 were administered to db/db mice for 12 days at 30 mg/kg/day, using ST1326 at a higher dose (80 mg/kg/day) as reference compound. At the end of the treatment, serum glucose levels were evaluated after 16 hours fasting and 2 hours from last administration.

[4] = target: T2, CPT1 in rat mitochondria (heart) (Rattus norvegicus, UniProt Q63704); assay: In vitro inhibition of CPT I, rat heart mitochondria; type: biochemical; settings: CPT1, heart mitochondria of Fischer rats, 50 μM palmitoyl-CoA, 10 mM L-carnitine, 37° C., 1 minute
T2 construct: fresh mitochondrial preparations obtained from the liver or heart of Fischer rats; from tissue; host or cells: rat heart mitochondria (Fischer rats)
T2 sequence (Q63704 1-772): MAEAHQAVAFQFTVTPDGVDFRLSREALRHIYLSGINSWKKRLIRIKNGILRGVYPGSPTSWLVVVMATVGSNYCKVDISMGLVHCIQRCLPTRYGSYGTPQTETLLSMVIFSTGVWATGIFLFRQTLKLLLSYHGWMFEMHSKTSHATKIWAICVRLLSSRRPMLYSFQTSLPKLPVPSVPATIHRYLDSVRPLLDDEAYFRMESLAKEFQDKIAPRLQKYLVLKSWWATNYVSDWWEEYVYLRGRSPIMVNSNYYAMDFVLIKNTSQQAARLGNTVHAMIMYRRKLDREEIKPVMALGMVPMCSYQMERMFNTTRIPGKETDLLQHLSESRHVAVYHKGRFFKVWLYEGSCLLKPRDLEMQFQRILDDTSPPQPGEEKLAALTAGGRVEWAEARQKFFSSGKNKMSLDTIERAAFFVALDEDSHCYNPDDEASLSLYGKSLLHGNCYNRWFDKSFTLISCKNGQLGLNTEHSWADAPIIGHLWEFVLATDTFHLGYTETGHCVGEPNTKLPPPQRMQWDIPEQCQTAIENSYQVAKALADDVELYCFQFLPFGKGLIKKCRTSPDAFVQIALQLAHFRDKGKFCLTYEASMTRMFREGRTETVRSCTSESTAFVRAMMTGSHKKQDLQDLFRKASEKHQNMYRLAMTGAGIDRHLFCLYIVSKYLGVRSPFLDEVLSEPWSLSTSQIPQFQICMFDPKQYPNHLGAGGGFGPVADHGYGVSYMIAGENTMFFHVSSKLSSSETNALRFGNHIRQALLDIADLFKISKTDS
Experimental: The inhibition of CPT was evaluated on fresh mitochondrial preparations obtained from the liver or heart of Fischer rats, fed normally; the mitochondria taken from the liver or heart are suspended in a 75 mM sucrose buffer, EGTA 1 mM, pH 7.5. 100 μl of a mitochondrial suspension, containing 50 μM of [^14C] palmitoyl-CoA (spec.act. 10000 dpm/mole) and 10 mM of L-carnitine, are incubated at 37° C. in the presence of stepped concentrations (0-3 mM) of product under examination.
as §1

[5] = tested on: C57BL/6J mice; assay: Effect on food intake and body weight of repeated intracerebroventricular administration; type: in vivo, mouse; settings: for Mice weight / 24 hours food intake: C57BL6/J mice, Mean ± S.D.
Experimental: Two groups of 8 C57BL/6J mice each (ST2425 and Control) were injected icv (3 μL) with 250 pmoles (0.113 μg) of ST2425 dissolved in RPMI 1640 (vehicle), for 4 days (starting from day 0). The animals were slightly confused by isofluorane anestesia. The head was positioned in an apparatus used to reveal a “virtual bregma” without opening the skin. The injection was performed with a syringe at 3.5 mm of depth, using the following coordinates from Bregma: 1 mm on the left of the midsagittal suture and 3 mm posterior (lateral ventricle). The animals were treated at 5:00 p.m. and food intake was monitored at 8:00 a.m. of the day after. Starting from the day after the first treatment, food was removed from 8:00 a.m. to 5:00 p.m.
Statistical analysis was performed using two way repeated measures ANOVA followed by Student, Newman, Keuls test as post-hoc analysis.

[6] = tested on: Sprague Dawley rats; assay: Effect on food intake of intranasal administration in normal rats; type: in vivo; settings: intranasal 320 μg/40 μL/rat for 3 days, starting from the day after the second treatment, FIG. 3
Experimental: FIG. 3 reports the food intake (expressed as g/kg b.w.) in Sprague Dawley rats, treated intranasally for 3 days with ST2425 (320 μg/40 μl/rat) equally subdivided in the two nostrils. (Mean±S.D. (n=5). One way ANOVA post-hoc test SNK *p≦0.05 vs Control)
To test the activity on food consumption of the compounds of the present invention after intranasal administration, ST2425 was given to normally-fed Sprague Dawley rats (320 μg/40 μL/rat, in citrate buffer 10 mmol/L pH 5.0, equally subdivided into the two nostrils) 2 h before the dark cycle. The compound was administered for 3 days (starting from day 0) and food consumption was measured every time for the following 24 h. Five rats were considered for each group.

[7] = day 1, icv 250 pmoles for 4 days
[8] = day 2, icv 250 pmoles for 4 days
[9] = day 3, icv 250 pmoles for 4 days
[10] = day 4, icv 250 pmoles for 4 days
[11] = days 3 and 4, statistically significant
[12] = over the experiment, icv 250 pmoles for 4 days

CCCCCCCCCCCCCCNC(=O)N[C@H](CC(=O)[O-])C[N+](C)(C)C [ST1326, R-4-trimethyl ammonium-3-(tetradecylcarbamoyl)-aminobutyrate, reference compound]
Ratio [1]: 135
ED50 ([2]; rats fasted 16 hours): 14.5 mg/kg
reduction of glucose levels ([3]; 80 mg/kg/day for 12 days): 26%

CCCCCCOc1cccc(OCCCCNC(=O)N[C@H](CC(=O)[O-])C[N+](C)(C)C)c1 [ST2425, (R)-4-trimethylammonium-3-[[4-[(3-hexyloxy)-phenoxy]butyl]carbamoyl]-amino-butyrate]
IC50 [4]: 31.6 µM
IC50 [1]: 0.27 µM
Ratio [1]: 117
ED50 ([2]; rats fasted 16 hours): 3.7 mg/kg
effect on ketone bodies levels, dose relation ([2]; fasted rats, FIG. 2): dose-related effect
onset of action on ketone bodies levels ([2]; rats fasted 16 hours, single oral treatment 1-10 mg/kg, FIG. 2): faster onset of action
reduction of β-hydroxybutyrate levels [2]: higher and faster with respect to ST1326
time to reach minimum β-hydroxybutyrate values [2]: 3 h
reduction of glucose levels ([3]; 30 mg/kg/day for 12 days): 41%
Mice weight ([5]; day 0, icv 250 pmoles for 4 days): 22.2 ± 0.91 g
24 hours food intake [5, 7]: 3.15 ± 0.61 g
Mice weight [5, 7]: 21.2 ± 0.96 g
24 hours food intake [5, 8]: 3.31 ± 0.70 g
Mice weight [5, 8]: 20.5 ± 1.14 g
change of mice weight ([5]; day 2, statistically significant): −5%
24 hours food intake [5, 9]: 3.35 ± 0.73 g
Mice weight [5, 9]: 20.0 ± 0.69 g
24 hours food intake [5, 10]: 3.55 ± 0.63 g
Mice weight [5, 10]: 20.1 ± 0.64 g
change of mice weight [5, 11]: −10%
reduction of food intake [5, 11]: about 30%
change of food consumption with respect to the control group [5, 12]: −25%
change of mice weight with respect to the control group [5, 12]: −7%
food consumption with respect to controls [6]: significant reduction of food consumption

CCCCCCOc1cccc(OCCCCNC(=O)N[C@H](CC(=O)[O-])C[P+](C)(C)C)c1 [ST2452, (R)-4-trimethylphosphonium-3-[[4-[(3-hexyloxy)phenoxy]butyl]carbamoyl]-amino-butyrate]
IC50 [4]: 57.3 µM
IC50 [1]: 0.12 µM
Ratio [1]: 478
reduction of β-hydroxybutyrate levels [2]: higher and faster with respect to ST1326
time to reach minimum β-hydroxybutyrate values [2]: 3 h
reduction of glucose levels ([3]; 30 mg/kg/day for 12 days): 30%
